Reference: paper PMC8236452, “Pharmacokinetics and safety of rucaparib in patients with advanced solid tumors and hepatic impairment” (Cancer Chemotherapy and Pharmacology, 2021)

Test system: patients with advanced solid tumors
Test: Safety and tolerability (TEAEs) after a single oral dose of rucaparib 600 mg
Assay type: in vivo, human
Conditions: for TEAE: Abdominal pain / TEAE: Cholangitis / TEAE: Hyperbilirubinemia / TEAE: Hypokalemia: Grade 3 event; for TEAE: Multiple organ dysfunction syndrome: Grade 5 event
Procedure: Safety and tolerability assessments comprised adverse events, clinical laboratory parameters, vital signs, 12-lead ECG, physical examination, and ECOG PS. For part 1 of this study, symptom-associated physical examination and safety laboratory tests, including clinical chemistry, hematology, coagulation, and urinalysis, were performed on day 7 after administration of the first dose of the study medication; 12-lead ECGs were performed 2 and 4 h postdose. All safety assessments were performed at the end of the treatment visit. Treatment-emergent adverse events (TEAEs) were defined as adverse events with an onset date on or after the date of first dose of study treatment until 28 days after the last dose. Causality of treatment-emergent adverse events was evaluated by investigators based on clinical and scientific data for rucaparib, including previously observed and known reactions, temporal relationship of event to rucaparib administration, patient response on […] rechallenge with the drug, medical history and ongoing concomitant conditions, natural course of the disease, potential effects of concomitant medications and interactions with the study drug, and biological plausibility of the event based on mechanism of action of rucaparib.

[1] = Moderate hepatic impairment (NCI-ODWG, n = 8)
[2] = Normal hepatic function (NCI-ODWG, n = 8)

CNCc1ccc(-c2[nH]c3cc(F)cc4c3c2CCNC4=O)cc1 [rucaparib]
TEAE: Anemia [1]: 1 (12.5) n (%)
TEAE: Ascites [1]: 1 (12.5) n (%)
TEAE: Body temperature increased [1]: 1 (12.5) n (%)
TEAE: Conjunctival hemorrhage [1]: 1 (12.5) n (%)
TEAE: Decreased appetite [1]: 0 n (%)
TEAE: Nausea [1]: 0 n (%)
TEAE: Pyrexia [1]: 1 (12.5) n (%)
TEAE: Renal failure [1]: 1 (12.5) n (%)
TEAE: Thrombocytopenia [1]: 1 (12.5) n (%)
TEAE: Urinary tract infection [1]: 1 (12.5) n (%)
TEAEs: Patients with any event [1]: 6 (75.0) n (%)
TEAE: Abdominal pain [1]: 1 (12.5) n (%)
TEAE: Cholangitis [1]: 1 (12.5) n (%)
TEAE: Hyperbilirubinemia [1]: 1 (12.5) n (%)
TEAE: Hypokalemia [1]: 1 (12.5) n (%)
TEAE: Multiple organ dysfunction syndrome [1]: 1 (12.5) n (%)
TEAE: Anemia [2]: 0 n (%)
TEAE: Ascites [2]: 0 n (%)
TEAE: Body temperature increased [2]: 0 n (%)
TEAE: Conjunctival hemorrhage [2]: 0 n (%)
TEAE: Decreased appetite [2]: 1 (12.5) n (%)
TEAE: Nausea [2]: 1 (12.5) n (%)
TEAE: Pyrexia [2]: 0 n (%)
TEAE: Renal failure [2]: 0 n (%)
TEAE: Thrombocytopenia [2]: 0 n (%)
TEAE: Urinary tract infection [2]: 0 n (%)
TEAEs: Patients with any event [2]: 2 (25.0) n (%)
TEAE: Abdominal pain [2]: 0 n (%)
TEAE: Cholangitis [2]: 0 n (%)
TEAE: Hyperbilirubinemia [2]: 0 n (%)
TEAE: Hypokalemia [2]: 0 n (%)
TEAE: Multiple organ dysfunction syndrome [2]: 0 n (%)
TEAE: Anemia (Overall (N = 16)): 1 (6.3) n (%)
TEAE: Ascites (Overall (N = 16)): 1 (6.3) n (%)
TEAE: Body temperature increased (Overall (N = 16)): 1 (6.3) n (%)
TEAE: Conjunctival hemorrhage (Overall (N = 16)): 1 (6.3) n (%)
TEAE: Decreased appetite (Overall (N = 16)): 1 (6.3) n (%)
TEAE: Nausea (Overall (N = 16)): 1 (6.3) n (%)
TEAE: Pyrexia (Overall (N = 16)): 1 (6.3) n (%)
TEAE: Renal failure (Overall (N = 16)): 1 (6.3) n (%)
TEAE: Thrombocytopenia (Overall (N = 16)): 1 (6.3) n (%)
TEAE: Urinary tract infection (Overall (N = 16)): 1 (6.3) n (%)
TEAEs: Patients with any event (Overall (N = 16)): 8 (50.0) n (%)
TEAE: Abdominal pain (Overall (N = 16)): 1 (6.3) n (%)
TEAE: Cholangitis (Overall (N = 16)): 1 (6.3) n (%)
TEAE: Hyperbilirubinemia (Overall (N = 16)): 1 (6.3) n (%)
TEAE: Hypokalemia (Overall (N = 16)): 1 (6.3) n (%)
TEAE: Multiple organ dysfunction syndrome (Overall (N = 16)): 1 (6.3) n (%)
Patients who withdrew from the study due to a TEAE (after completion of PK assessment in Part 1, both in the moderate hepatic impairment group): two
Patients who experienced at least 1 TEAE (all 16 patients): 50%
System Organ Class TEAEs: gastrointestinal disorders (all 16 patients, abdominal pain, ascites, nausea): 18.8%
Patients with at least 1 TEAE of grade 3 or higher (all in the moderate hepatic impairment group): Four
TEAEs considered treatment related (grade 1 anemia and grade 1 thrombocytopenia, one patient, moderate hepatic impairment group): 2 TEAEs
Patients who experienced at least 1 TEAE (moderate hepatic impairment group): 75.0%
Patients who experienced at least 1 TEAE (normal hepatic function group): 25.0%
Trends in clinical laboratory parameters, vital signs, ECG, physical examinations (single oral rucaparib 600 mg): no clinically relevant treatment-related trends observed
